Laboratory results: ChEMBL document CHEMBL2169826, “Pharmacokinetic benefits of 3,4-dimethoxy substitution of a phenyl ring and design of isosteres yielding orally available cathepsin K inhibitors” (J Med Chem, 2012)

Columns and labels:
[1] = in vivo; conditions: Alderley Park Han Wistar, rat, plasma, iv, 2 mg/kg
[2] = Volume of distribution at steady state in Alderley Park Han Wistar rat at 2 mg/kg, iv and 2 mg/kg, po; assay type: ADME, organism-based; conditions: in vivo, read-out: Vdss
[3] = Oral bioavailability in Alderley Park Han Wistar rat at 2 mg/kg; assay type: ADME, organism-based; conditions: in vivo
[4] = Metabolic stability of the compound in rat liver microsomes assessed as compound turnover after 120 mins
[5] = Percentage unbound in rat plasma; assay type: ADME, cell-free
[6] = Oral bioavailability in rat; assay type: ADME, organism-based; conditions: in vivo
[7] = Percentage unbound in human plasma; assay type: ADME, cell-free
[8] = Volume of distribution at steady state in rat; assay type: ADME, organism-based; conditions: in vivo, read-out: Vdss
[9] = Clearance in rat; assay type: ADME, organism-based; conditions: in vivo
[10] = Inhibition of osteoclastogenesis in human bone marrow-derived stem cells assessed as reduction of pit formation by measuring TRACP5b activity after 7 days by bone TRAP assay; assay type: functional; conditions: 168 h
[11] = species: Homo sapiens; experiment: Selectivity ratio of IC50 for human recombinant cathepsin-K to IC50 for human recombinant cathepsin-B
[12] = Oral bioavailability in Beagle dog at 1 mg/kg; assay type: ADME, organism-based, Canis lupus familiaris; conditions: in vivo
[13] = Aqueous solubility of the compound in at pH 7.4; conditions: buffer
[14] = biological target: Cathepsin S (Homo sapiens, UniProt P25774); experiment: Inhibition of human recombinant cathepsin-S using Z-Val-Val-Arg-AMC as substrate preincubated for 15 mins measured after 1 hr by QFRET assay
Sequence of Cathepsin S (P25774 whole entry): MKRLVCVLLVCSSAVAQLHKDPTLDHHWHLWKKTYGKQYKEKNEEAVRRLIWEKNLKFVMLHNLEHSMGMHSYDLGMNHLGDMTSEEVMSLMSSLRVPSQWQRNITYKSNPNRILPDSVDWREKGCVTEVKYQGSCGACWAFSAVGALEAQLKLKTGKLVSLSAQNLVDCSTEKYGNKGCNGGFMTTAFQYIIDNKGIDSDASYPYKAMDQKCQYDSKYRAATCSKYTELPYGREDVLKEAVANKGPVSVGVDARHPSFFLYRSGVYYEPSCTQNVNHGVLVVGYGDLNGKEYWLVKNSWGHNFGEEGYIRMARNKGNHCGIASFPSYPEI

[15] = biological target: Cathepsin B (Homo sapiens, UniProt P07858); experiment: Inhibition of human recombinant cathepsin-B using Z-Arg-Arg-AMC as substrate preincubated for 15 mins measured after 1 hr by QFRET assay
[16] = physchem; conditions: buffer, pH 7.4
[17] = biological target: Procathepsin L (Homo sapiens, UniProt P07711); experiment: Inhibition of human recombinant cathepsin-L using Z-Phe-Arg-AMC as substrate preincubated for 15 mins measured after 1 hr by QFRET assay
Sequence of Procathepsin L (P07711 whole entry): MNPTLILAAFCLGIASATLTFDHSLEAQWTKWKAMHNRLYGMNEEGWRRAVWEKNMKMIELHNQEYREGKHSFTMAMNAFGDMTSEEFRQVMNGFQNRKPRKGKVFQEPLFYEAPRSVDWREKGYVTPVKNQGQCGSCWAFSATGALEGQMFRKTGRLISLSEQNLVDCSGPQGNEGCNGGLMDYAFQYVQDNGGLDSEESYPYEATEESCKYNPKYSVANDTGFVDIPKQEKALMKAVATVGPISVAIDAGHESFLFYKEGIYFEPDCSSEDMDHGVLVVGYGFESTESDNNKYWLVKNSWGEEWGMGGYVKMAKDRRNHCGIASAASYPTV

[18] = Metabolic stability of the compound in human liver microsomes assessed as compound turnover after 120 mins
[19] = in vivo; conditions: beagle, dog, plasma, iv, 1 mg/kg
[20] = biological target: T1, Cathepsin K (Homo sapiens, UniProt P43235); experiment: Inhibition of human recombinant cathepsin-k using Z-Phe-Arg-AMC as substrate preincubated for 15 mins measured after 1 hr by QFRET assay
T1 sequence (P43235 whole entry): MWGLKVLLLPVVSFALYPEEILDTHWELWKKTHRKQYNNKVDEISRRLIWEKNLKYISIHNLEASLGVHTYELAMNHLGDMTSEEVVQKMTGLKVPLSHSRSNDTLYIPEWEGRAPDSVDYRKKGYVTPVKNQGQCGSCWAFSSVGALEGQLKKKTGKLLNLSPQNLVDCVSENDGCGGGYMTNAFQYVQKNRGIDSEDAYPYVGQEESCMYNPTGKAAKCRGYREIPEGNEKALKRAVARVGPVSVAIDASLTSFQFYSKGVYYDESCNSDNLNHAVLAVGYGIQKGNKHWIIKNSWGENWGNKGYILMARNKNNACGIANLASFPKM

[21] = Volume of distribution at steady state in Beagle dog at 1 mg/kg, iv and 1 mg/kg, po; assay type: ADME, organism-based, Canis lupus familiaris; conditions: in vivo, read-out: Vdss
[22] = Percentage unbound in dog plasma; assay type: ADME, cell-free, Canis lupus familiaris

For `N#CC1(NC(=O)[C@@H]2CCCC[C@H]2C(=O)N2CCN(c3ccc(F)cc3)CC2)CC1`, which clearance [1] is on record?
Its clearance is 36 mL/min/kg.

What about the Vd [2] of the same compound?
Its Vd is 1.3 L/kg.

And the bioavailability [3]?
The bioavailability was 0%.

What about the microsomal CLint at 2 h [4] of the same compound?
Its microsomal CLint at 2 h is 35 µL/min/mg.

And the fraction unbound [5]?
The fraction unbound was greater than 0.53.

And the bioavailability [6]?
Its bioavailability is 0%.

What about the fraction unbound [7] of the same compound?
The fraction unbound was greater than 0.5.

What about the Vd [8] of the same compound?
Its Vd is 1.3 L/kg.

And the clearance [9]?
Its clearance is 36 mL/min/kg.

For `COc1ccc(N2CCN(C(=O)[C@@H]3CCCC[C@H]3C(=O)NC3(C#N)CC3)CC2)cc1OC`, which clearance [1] is on record?
The clearance was 29 mL/min/kg.

And the IC50 [10]?
Its IC50 is 126 nM.

And the bioavailability [3]?
Its bioavailability is 41%.

What about the Ratio IC50 [11] of the same compound?
The Ratio IC50 was 340.

And the bioavailability [12]?
The bioavailability was 79%.

And the microsomal CLint at 2 h [4]?
The microsomal CLint at 2 h was less than 7.4 µL/min/mg.

What about the solubility [13] of the same compound?
Its solubility is greater than 2500 µM.

What about the IC50 [14] of the same compound?
Its IC50 is 2290 nM.

What about the IC50 [15] of the same compound?
The IC50 was 3060 nM.

And the logD [16]?
Its logD is 1.4.

And the IC50 [17]?
Its IC50 is greater than 10000 nM.

What about the microsomal CLint at 2 h [18] of the same compound?
Its microsomal CLint at 2 h is 2.3 µL/min/mg.

What about the fraction unbound [7] of the same compound?
The fraction unbound was 0.45.

And the clearance [19]?
The clearance was 12 mL/min/kg.

And the IC50 [20]?
The IC50 was 9 nM.

What does the source list for `COc1ccc(N2CCN(C(=O)[C@@H]3CCCC[C@H]3C(=O)NC3(C#N)CC3)[C@H](C)C2)cc1OC`?
Vd [21]: 0.8 L/kg; Vd [2]: 1.2 L/kg; IC50 [10]: 40 nM; bioavailability [3]: 46%; bioavailability [12]: 71%; solubility [13]: > 2400 µM; IC50 [14]: 1450 nM; fraction unbound [22]: 0.39; IC50 [15]: 1850 nM; fraction unbound [5]: 0.53; logD [16]: 1.9; IC50 [17]: > 10000 nM; fraction unbound [7]: 0.39; IC50 [20]: 4 nM
